Results: paper PMC11677527, “Predicting Pharmacokinetics of Active Constituents in Spatholobi caulis by Using Physiologically Based Pharmacokinetic Models” (Pharmaceuticals, 2024)
Like-named read-outs stand apart in the source and are kept apart here.

Key:
[1] = Observed pharmacokinetics in rats after oral SPC (previous study); type: in vivo, rat; conditions: p.o. SPC
[2] = Verification pharmacokinetic experiment in rats, SPC 60 g crude drug/kg by gavage, UFLC-MS/MS, DAS 2.0; type: in vivo, rat
Procedure: To validate the accuracy of PBPK models in predicting the pharmacokinetics of SPC constituents at different oral doses, the pharmacokinetic behavior of these four constituents from SPC in rats were analyzed by UFLC-MS/MS. The parameters were calculated using Drug and Statistics Software version 2.0, and then these validated values (Val.) were used to check the accuracy of the Calc. values and evaluated by FE.
The pharmacokinetic fitting results of rats given 60 g crude drug/kg body weight of SPC by gavage were verified by experiments. The verification experiment was conducted according to our previous pharmacokinetic study. In brief, 1.5 mL suspension of SPC was given to rats by oral administration; 300 μL blood samples from orbital venous at 0.083, 0.25, 0.5, 0.75, 1.0, 1.5, 2, 3, 4, 6, 8, and 12 h were collected and pretreated with heparin sodium. After centrifugation, the plasma samples were obtained and further processed for subsequent detection by UFLC-MS/MS; the detailed analysis method is shown in Supplementary Data (Table S1 and Figure S1). The concentration-time curve of each compound was gained, and the pharmacokinetic parameters were calculated using DAS 2.0 software (DAS 2.0, Mathematical Pharmacology Professional Committee of China, Shanghai, China). The results of these four constituents were compared with the PBPK parameters predicted in rats at an oral dose of 60 g crude drug/kg body weight of SPC.
1. The instrument and analytical conditions of UFLC-MS/MS method
4 constituents (1. 3′-methoxydadizein; 2. 8-O-methylretusin; 3. Daidzin; and 4. […]
The internal standard (IS) carbamazepine with a purity of more than 99 % was purchased from Beijing JK-chemical technology Co. Ltd., (Beijing China). Heparin sodium was gained from Tianjin biochemical pharmaceutical Co. Ltd, (Tianjin, China).
Ammonium acetate of HPLC grade, methanol and acetonitrile of LC-MS grade were purchased from Sigma (LOT# BCBK6717V, sigma-aldrich, Co., MO, USA) and Fisher (Fisher Corp., Fair lawn, NJ, USA) respectively. The experimental ultrapure water was prepared by Millipore Milli-Q ultrapure water preparation apparatus (Millipore Sigma, […]
The detailed information of Shimadzu UFLC-MS/MS 8050 liquid mass system equipped with Nexera X2UFLC liquid chromatography system and 8050 triple quadrupole mass spectrometers with an electrospray ionization source were listed in our previous study. The supporting LabSolution workstation was used for data […]
The separation without superposition of analytes in plasma sample was achieved on a Kinetex® C18 chromatographic column (100mm×2.1mm i.d.; 2.6 μm, 100 Å; Phenomenex, Inc., Torrance, CA, USA) assembled with a Phenomenex p/n AJ0-9000 C18 protection column. The mobile phase was consisted of 0.5 mM ammonium acetate in water (A) and ACN (B). The gradient elution program was selected ultimately as […]
95 % B (18.7–22 min). Column and automatic sampler temperature were set as 30 °C and 4 °C respectively. The flow rate of mobile phase was 0.35 mL/min while sample injection volume was 4 μL.
Multiple reaction monitoring (MRM) of positive or negative modes were used as scanning modes for the analytes and IS. Other essential parameters were successively optimized as: Nebulizing gas flow, 3 L/min; Heating gas flow, 10 L/min; Drying gas flow, 10 L/min; Interface temperature, 300 °C; DL temperature, 250 °C; Interface and detector voltage were each set as 3.0 kV and 1.8 kV. The detection parameters such as retention time (RT), dwell time (DT), quadrupole 1 pre-rod bias (Q1), collision energy […]
Table S1 The retention time and ion equivalent parameters of 4 constituents in rat […]
Constituents Retention Precursor Precursor Product time Pre energy Pre time (min) ion species ion ion (msec) Bias (V) Bias

Caco-2 cell monolayer = test system: Caco-2 cell monolayer; set-up: method as in PMID 36680806, PMID 26501241; conditions: Caco-2 cell monolayer model; cited from earlier work
[3] = set-up: method as in PMID 34303214; conditions: rats, p.o. SPC 30 g crude drug/kg; doses of 1-4: 0.062, 0.11, 0.71, 1.31 mg/kg; cited from earlier work
[4] = compartment model parameters, DAS 2.0, rats p.o. SPC 60 g crude drug/kg, Mean, 5 rats
[5] = statistical moment parameters, DAS 2.0, rats p.o. SPC 60 g crude drug/kg, Mean, 5 rats
[6] = statistical moment parameters, DAS 2.0, rats p.o. SPC 60 g crude drug/kg, Mean, 5 rats, in µg·h²/mL

Structure (SMILES): COc1ccc(-c2coc3c(OC)c(O)ccc3c2=O)cc1 [Constituent 2, 8-O-methylretusin]
- time of slight secondary absorption peak [1]: 3 h
- K10 [2, 4]: 6.671 h⁻¹
- K12 [2, 4]: 0.394 h⁻¹
- K21 [2, 4]: 0.474 h⁻¹
- Ka [2, 4]: 2.056 h⁻¹
- Tlag [2, 4]: 0 h
- V1/F [2, 4]: 12.043 L/kg
- t1/2Ka [2, 4]: 20.246 h
- t1/2α [2, 4]: 34.861 h
- concentration at 0.083 h ([2]; rat, plasma, oral, time 0.083 h, rats p.o. SPC 60 g crude drug/kg, doses of 1-4: 0.124, 0.22, 1.4, 2.62 mg/kg, 5 rats): 9 ng/mL
- concentration at 0.25 h ([2]; rat, plasma, oral, time 0.25 h, rats p.o. SPC 60 g crude drug/kg, doses of 1-4: 0.124, 0.22, 1.4, 2.62 mg/kg, 5 rats): 22.9 ng/mL
- concentration at 0.5 h ([2]; rat, plasma, oral, time 0.5 h, rats p.o. SPC 60 g crude drug/kg, doses of 1-4: 0.124, 0.22, 1.4, 2.62 mg/kg, 5 rats): 12.3 ng/mL
- concentration at 0.75 h ([2]; rat, plasma, oral, time 0.75 h, rats p.o. SPC 60 g crude drug/kg, doses of 1-4: 0.124, 0.22, 1.4, 2.62 mg/kg, 5 rats): 5.23 ng/mL
- concentration at 1 h ([2]; rat, plasma, oral, time 1 h, rats p.o. SPC 60 g crude drug/kg, doses of 1-4: 0.124, 0.22, 1.4, 2.62 mg/kg, 5 rats): 3.33 ng/mL
- concentration at 1.5 h ([2]; rat, plasma, oral, time 1.5 h, rats p.o. SPC 60 g crude drug/kg, doses of 1-4: 0.124, 0.22, 1.4, 2.62 mg/kg, 5 rats): 1.97 ng/mL
- concentration at 2 h ([2]; rat, plasma, oral, time 2 h, rats p.o. SPC 60 g crude drug/kg, doses of 1-4: 0.124, 0.22, 1.4, 2.62 mg/kg, 5 rats): 0.809 ng/mL
- concentration at 3 h ([2]; rat, plasma, oral, time 3 h, rats p.o. SPC 60 g crude drug/kg, doses of 1-4: 0.124, 0.22, 1.4, 2.62 mg/kg, 5 rats): 0.809 ng/mL
- concentration at 4 h ([2]; rat, plasma, oral, time 4 h, rats p.o. SPC 60 g crude drug/kg, doses of 1-4: 0.124, 0.22, 1.4, 2.62 mg/kg, 5 rats): 0.409 ng/mL
- concentration at 6 h ([2]; rat, plasma, oral, time 6 h, rats p.o. SPC 60 g crude drug/kg, doses of 1-4: 0.124, 0.22, 1.4, 2.62 mg/kg, 5 rats): 0.445 ng/mL
- concentration at 8 h ([2]; rat, plasma, oral, time 8 h, rats p.o. SPC 60 g crude drug/kg, doses of 1-4: 0.124, 0.22, 1.4, 2.62 mg/kg, 5 rats): 0.161 ng/mL
- AUC(0-t) ([2]; rat, plasma, po, 0.22 mg/kg, compartment model parameters, DAS 2.0, rats p.o. SPC 60 g crude drug/kg, Mean, 5 rats, read-out: AUC(0-t)): 19.8 ng·h/mL
- AUC(0-inf) ([2]; rat, plasma, po, 0.22 mg/kg, compartment model parameters, DAS 2.0, rats p.o. SPC 60 g crude drug/kg, Mean, 5 rats, read-out: AUC(0-∞)): 22.4 ng·h/mL
- CL/F ([2]; rat, plasma, po, 0.22 mg/kg, compartment model parameters, DAS 2.0, rats p.o. SPC 60 g crude drug/kg, Mean, 5 rats, read-out: CL/F (converted)): 209 mL/min/kg
- half-life ([2]; rat, plasma, po, 0.22 mg/kg, compartment model parameters, DAS 2.0, rats p.o. SPC 60 g crude drug/kg, Mean, 5 rats, read-out: t1/2β (converted)): 35.4 h
- AUC(0-t) ([2]; rat, plasma, po, 0.22 mg/kg, statistical moment parameters, DAS 2.0, rats p.o. SPC 60 g crude drug/kg, Mean, 5 rats, read-out: AUC(0-t)): 15.3 ng·h/mL
- AUC(0-inf) ([2]; rat, plasma, po, 0.22 mg/kg, statistical moment parameters, DAS 2.0, rats p.o. SPC 60 g crude drug/kg, Mean, 5 rats, read-out: AUC(0-∞)): 15.5 ng·h/mL
- CL/F ([2]; rat, plasma, po, 0.22 mg/kg, statistical moment parameters, DAS 2.0, rats p.o. SPC 60 g crude drug/kg, Mean, 5 rats, read-out: CLz/F (converted)): 238 mL/min/kg
- Cmax ([2]; rat, plasma, po, 0.22 mg/kg, statistical moment parameters, DAS 2.0, rats p.o. SPC 60 g crude drug/kg, Mean, 5 rats, read-out: Cmax): 25.3 ng/mL
- MRT last ([2]; rat, plasma, po, 0.22 mg/kg, statistical moment parameters, DAS 2.0, rats p.o. SPC 60 g crude drug/kg, Mean, 5 rats, read-out: MRT(0-t)): 1.01 h
- MRT inf ([2]; rat, plasma, po, 0.22 mg/kg, statistical moment parameters, DAS 2.0, rats p.o. SPC 60 g crude drug/kg, Mean, 5 rats, read-out: MRT(0-∞)): 1.3 h
- Tmax ([2]; rat, plasma, po, 0.22 mg/kg, statistical moment parameters, DAS 2.0, rats p.o. SPC 60 g crude drug/kg, Mean, 5 rats, read-out: Tmax): 0.25 h
- Vd/F ([2]; rat, plasma, po, 0.22 mg/kg, statistical moment parameters, DAS 2.0, rats p.o. SPC 60 g crude drug/kg, Mean, 5 rats, read-out: Vz/F): 22.1 L/kg
- half-life ([2]; rat, plasma, po, 0.22 mg/kg, statistical moment parameters, DAS 2.0, rats p.o. SPC 60 g crude drug/kg, Mean, 5 rats, read-out: t1/2z (converted)): 1.07 h
- AUC(0-t) ([2]; rat, plasma, po, 2.62 mg/kg, rats, p.o. SPC 60 g crude drug/kg, doses of 1-4: 0.124, 0.22, 1.42, 2.62 mg/kg, n = 5, read-out: AUC0→t Val.): 15.3 ng·h/mL
- AUC(0-inf) ([2]; rat, plasma, po, 2.62 mg/kg, rats, p.o. SPC 60 g crude drug/kg, doses of 1-4: 0.124, 0.22, 1.42, 2.62 mg/kg, n = 5, read-out: AUC0→∞ Val.): 15.5 ng·h/mL
- Tmax ([2]; rat, plasma, po, rats, p.o. SPC 60 g crude drug/kg, doses of 1-4: 0.124, 0.22, 1.42, 2.62 mg/kg, n = 5, read-out: Tmax Val.): 0.25 h
- Cz [2, 5]: 0.107 µg/L
- VRT(0-t) [2, 5]: 1.65 h^2
- VRT(0-∞) [2, 5]: 3.316 h^2
- elimination rate constant [2, 5]: 0.675 h⁻¹
- AUMC(0-t) [2, 6]: 15.37
- AUMC(0-∞) [2, 6]: 20.163
- Papp (Caco-2 cell monolayer): 24.8 ×10⁻⁶ cm/s
- AUC0→t Obs. [3]: 9.7 ng·h/mL
- AUC0→∞ Obs. [3]: 11.5 ng·h/mL
- Cmax Obs. [3]: 13.6 ng/mL
